Test results as given in publication PMC11292009, “Mapping protein binding sites by photoreactive fragment pharmacophores” (Communications Chemistry, 2024).
Where “and” joins values, the source holds several entries; their conditions need not be identical. Equal values may be shown once.

Columns and labels:
PANC-1 cells = assay: MTT cell viability assay, PANC-1; format: cell-based, human; settings: for cell viability: replicates
Excerpt: (§1) Pancreatic cancer cell lines PANC-1 (cat. no. CRL-1469), SW1990 (cat. no. CRL-2172) were obtained from ATCC (American Type Culture Collection). Genetically modified isogeneic colon cancer cell lines SW48-PAR and SW48-G12D were obtained from Horizon Discovery Ltd. PANC-1 (human pancreatic cancer, KRas^G12D), SW1990 (human pancreatic cancer, KRas^G12D), SW48-PAR (human colon cancer; parental cell line KRas^wt), and SW48-G12D (human colon cancer; heterozygous knockin of the KRas^G12D activating mutation) cancer cell lines were cultured in Roswell Park Memorial Institute Medium (RPMI; Biosera, Nuaille, France), supplemented with 10% heat-inactivated Fetal Bovine Serum (FBS; Biosera), and with 1% Penicillin/Streptomycin (Biosera). Cells were cultured in sterile T75 flasks with ventilation cap (Sarstedt, Nümbrecht, Germany) at 37 °C in a humidified atmosphere with 5% CO2 in ESCO CelCulture Incubator (ESCO, Friedberg, Germany). Manipulations with the cells were performed in biosafety cabinet (laminar) ESCO Sentinel Gold class II model AC2-4E8 (ESCO).
(§2) After standard harvesting of the cells by trypsin-EDTA (Biosera), 7 × 10^3 cells per well depending on the cell line, were seeded in serum-containing growth medium to 96-well plates and incubated. After 24 h, cells were treated with various concentrations of fragments (32 nM–100 μM), dissolved in serum-containing medium, and incubated under standard conditions. Control wells were treated with medium. Final concentration of serum was 2.5%, final concentration of DMSO was 0.2%. Treatment was for 72 h continuously.
(§3) Afterwards, MTT assay was performed in order to determine cell viability, by adding 20 μL of MTT solution (5 mg/mL in PBS) to each well and after 2 h of incubation at 37 °C, the supernatant was removed. The formazan crystals were dissolved in 100 μL of a 1:1 solution of DMSO (Sigma-Aldrich):EtOH (Molar Chemicals) and the absorbance was measured after 15 min at λ = 570 nm by using a microplate reader (BioTek 800TS, Agilent, Santa Clara, CA, USA). The IC50 values of the fragments were calculated using GraphPad Prism 6 (GraphPad Software, San Diego, CA, USA). The experiments were done in triplicate, and each experiment was repeated two times.

SW48-PAR cells = assay: MTT cell viability assay, SW48-PAR; format: cell-based, human; settings: for cell viability: replicates, in % (unit assumed)
Excerpt: as §1, §2, §3

Structure (SMILES): Cc1ncc(CO)c(CNC(=O)CCC2(C)N=N2)c1O [PhP072, Cc1ncc(CO)c(c1O)CNC(=O)CCC2(C)N=N2]
- IC50 (PANC-1 cells; Homo sapiens, read-out: IC50, antiproliferative activity, PANC-1, MTT, 72 h): 22.6 µM
- cell viability (PANC-1 cells; PANC-1, [PhP072] 3.2e-8 M, in % (unit assumed)): 94.1678 and 97.1333 and 95.7988 and 102.516 and 102.977 and 106.78
- cell viability (PANC-1 cells; PANC-1, [PhP072] 1.6e-7 M): 92.8333 and 84.2333 and 97.1333 and 102.977 (2×) and 103.899
- cell viability (PANC-1 cells; PANC-1, [PhP072] 8e-7 M): 87.6436 and 92.0919 and 90.4609 and 96.2933 (2×) and 94.7953
- cell viability (PANC-1 cells; PANC-1, [PhP072] 4e-6 M, in % (unit assumed)): 82.1574 and 83.0471 and 79.785 and 89.6098 and 90.0707 and 84.5396
- cell viability (PANC-1 cells; PANC-1, [PhP072] 2e-5 M, in % (unit assumed)): 72.9643 and 73.7057 and 70.7401 and 83.3872 and 78.8931 and 79.2388
- cell viability (PANC-1 cells; PANC-1, [PhP072] 0.0001 M): 57.9884 and 55.9125 and 55.7642 and 57.9207 and 64.7194 (2×)
- Antiproliferative effect (SW48-PAR cells; MTT, 72 h): antiproliferative activity
- cell viability (SW48-PAR cells; [PhP072] 3.2e-8 M): 110.532 and 99.0425 and 106.761 and 103.567 and 100.905
- cell viability (SW48-PAR cells; [PhP072] 1.6e-7 M): 106.815 and 103.774 and 96.677 and 105.91 and 101.544 and 99.8403
- cell viability (SW48-PAR cells; [PhP072] 8e-7 M): 103.098 and 102.084 and 99.3805 and 101.65 and 100.905 and 100.16
- cell viability (SW48-PAR cells; [PhP072] 4e-6 M): 97.3529 and 105.125 and 97.3912 and 92.7061 and 92.8126
- cell viability (SW48-PAR cells; [PhP072] 2e-5 M): 98.3667 and 91.9459 and 92.9597 and 81.7386 and 78.0118 and 75.2433
- cell viability (SW48-PAR cells; [PhP072] 0.0001 M): 78.0907 and 76.0631 and 71.332 and 66.8313 and 68.322 and 64.4887
